Reference: the supplement of paper PMC5908809

What was measured:
DERL-7 (IL-2 2.5 ng/mL) [1] = assay: drug sensitivity score (DSS) (DSS units); higher = more sensitive; extreme values may be limits of the assay; settings: 72 h
[2] = test system: normal primary NK cells, pool 3 (3 donors) (IL-2 2.5 ng/mL); assay: as above; settings: 72 h
[3] = test system: normal primary NK cells, pool 1 (3 donors), resting (IL-2 0 ng/mL); assay: as above; settings: 72 h
YT (IL-2 2.5 ng/mL) [4] = assay: as above; settings: 72 h
[5] = test system: normal primary NK cells, pool 2 (3 donors) (IL-2 2.5 ng/mL); assay: as above; settings: 72 h
IMC-1 (IL-2 20 ng/mL) [6] = assay: as above; settings: 72 h
NKL (IL-2 2.5 ng/mL) [7] = assay: as above; settings: 72 h
NK-92 (IL-2 2.5 ng/mL) [8] = assay: as above; settings: 72 h
KAI3 (IL-2 2.5 ng/mL) [9] = assay: as above; settings: 72 h
NK-YS (IL-2 2.5 ng/mL) [10] = assay: as above; settings: 72 h
KHYG-1 (IL-2 2.5 ng/mL) [11] = assay: as above; settings: 72 h
SNK-6 (IL-2 2.5 ng/mL) [12] = assay: as above; settings: 72 h
[13] = test system: normal primary NK cells, pool 1 (3 donors) (IL-2 2.5 ng/mL); assay: as above; settings: 72 h
DERL-7 (IL-2 2.5 ng/mL) [14] = assay: percent inhibition of viability; higher = more inhibition; settings: 72 h
[15] = test system: normal primary NK cells, pool 3 (3 donors) (IL-2 2.5 ng/mL); assay: as above; settings: 72 h
[16] = test system: normal primary NK cells, pool 1 (3 donors), resting (IL-2 0 ng/mL); assay: as above; settings: 72 h
YT (IL-2 2.5 ng/mL) [17] = assay: as above; settings: 72 h
[18] = test system: normal primary NK cells, pool 2 (3 donors) (IL-2 2.5 ng/mL); assay: as above; settings: 72 h
IMC-1 (IL-2 20 ng/mL) [19] = assay: as above; settings: 72 h
NKL (IL-2 2.5 ng/mL) [20] = assay: as above; settings: 72 h
NK-92 (IL-2 2.5 ng/mL) [21] = assay: as above; settings: 72 h
KAI3 (IL-2 2.5 ng/mL) [22] = assay: as above; settings: 72 h
NK-YS (IL-2 2.5 ng/mL) [23] = assay: as above; settings: 72 h
KHYG-1 (IL-2 2.5 ng/mL) [24] = assay: as above; settings: 72 h
SNK-6 (IL-2 2.5 ng/mL) [25] = assay: as above; settings: 72 h
[26] = test system: normal primary NK cells, pool 1 (3 donors) (IL-2 2.5 ng/mL); assay: as above; settings: 72 h
[27] = test system: normal NK cells expanded with K562-aAPC; assay: drug sensitivity score (DSS) (DSS units); higher = more sensitive; extreme values may be limits of the assay; settings: 72 h; IL-2 2.5 ng/mL
Procedure: (§1)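 Drug sensitivity and resistance testing on K562-aAPC-expanded normal NK cells: 5 concentrations (10-fold steps over a 10,000-fold range), 72 h at 37 °C, viability by CellTiter-Glo normalised to DMSO and benzethonium chloride controls; DSS from the fitted curve.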

[28] = test system: normal NK cells expanded with K562-aAPC; assay: percent inhibition of viability; higher = more inhibition; settings: 72 h, IL-2 2.5 ng/mL
Procedure: as §1

C[C@@]1(C(=O)Nc2ccc(F)nc2)CCCN1c1nc(Nc2cc(C3CC3)n[nH]2)c2cccn2n1 (max concentration tested 10000 nM)
Settings	drug sensitivity score
DERL-7 (IL-2 2.5 ng/mL) [1]	13.9
IMC-1 (IL-2 20 ng/mL) [6]	4.66
KAI3 (IL-2 2.5 ng/mL) [9]	4.58
KHYG-1 (IL-2 2.5 ng/mL) [11]	7.7
NK-92 (IL-2 2.5 ng/mL) [8]	7.43
NK-YS (IL-2 2.5 ng/mL) [10]	12.7
NKL (IL-2 2.5 ng/mL) [7]	0
SNK-6 (IL-2 2.5 ng/mL) [12]	10.8
YT (IL-2 2.5 ng/mL) [4]	5.62
[2]	0
[3]	2.52
[5]	0
[13]	0.16
[27]	7.77

percent inhibition of viability [%]
Settings	1 nM	10 nM	100 nM	1000 nM	10000 nM
DERL-7 (IL-2 2.5 ng/mL) [14]	-1.6	5.82	2.68	74.3	60.1
IMC-1 (IL-2 20 ng/mL) [19]	1.89	-6.3	0.07	3.22	76.3
KAI3 (IL-2 2.5 ng/mL) [22]	-1.42	-2.58	4.51	22.4	41.7
KHYG-1 (IL-2 2.5 ng/mL) [24]	-3.05	-5.44	1.8	30.1	70.8
NK-92 (IL-2 2.5 ng/mL) [21]	1.84	11	7.85	33.8	57.6
NK-YS (IL-2 2.5 ng/mL) [23]	-3.69	-4.66	4.73	65.5	77.1
NKL (IL-2 2.5 ng/mL) [20]	-16.6	-4.3	-14.1	1.87	-5.96
SNK-6 (IL-2 2.5 ng/mL) [25]	2.3	-11.9	-15.8	57.8	74.8
YT (IL-2 2.5 ng/mL) [17]	3.08	1.72	7.96	25	51.8
[15]	-3.23	-1.9	0.53	7.47	-2.1
[16]	-9	-4.43	15.4	-2.47	51.6
[18]	-2.95	-4.83	-5.48	-1.42	10.7
[26]	-6.95	-10	3.68	2.67	12.4
[28]	-9.12	-3.4	-6.53	45.5	42.2

N#Cc1ccc(C(c2ccc(C#N)cc2)n2cncn2)cc1 [Letrozole] (max concentration tested 10000 nM)
Settings	drug sensitivity score
DERL-7 (IL-2 2.5 ng/mL) [1]	0
IMC-1 (IL-2 20 ng/mL) [6]	0
KAI3 (IL-2 2.5 ng/mL) [9]	0.38
KHYG-1 (IL-2 2.5 ng/mL) [11]	0
NK-92 (IL-2 2.5 ng/mL) [8]	0.25
NK-YS (IL-2 2.5 ng/mL) [10]	0
NKL (IL-2 2.5 ng/mL) [7]	0.42
SNK-6 (IL-2 2.5 ng/mL) [12]	0
YT (IL-2 2.5 ng/mL) [4]	1.23
[2]	0
[3]	0
[5]	0
[13]	0
[27]	0

percent inhibition of viability [%]
Settings	1 nM	10 nM	100 nM	1000 nM	10000 nM
DERL-7 (IL-2 2.5 ng/mL) [14]	3.92	-4.41	0.76	-20.5	-8.07
IMC-1 (IL-2 20 ng/mL) [19]	-2.09	-2.27	-1.74	2.28	8.91
KAI3 (IL-2 2.5 ng/mL) [22]	-6.48	-8.29	2.19	2.56	14.1
KHYG-1 (IL-2 2.5 ng/mL) [24]	-7.78	-5.69	-3.04	-1.07	5.03
NK-92 (IL-2 2.5 ng/mL) [21]	-10.2	-8	-6.61	-5.03	17.5
NK-YS (IL-2 2.5 ng/mL) [23]	-8.7	-6.85	-4.19	1.26	9.67
NKL (IL-2 2.5 ng/mL) [20]	-6.26	-9.07	3.52	11.2	10.6
SNK-6 (IL-2 2.5 ng/mL) [25]	14.2	-31.4	-25.2	-23.6	-28.2
YT (IL-2 2.5 ng/mL) [17]	0.65	-5.8	1.61	-1.29	30.5
[15]	2.09	-1.11	10.7	-4.55	-7.8
[16]	-3.46	12.2	4.99	1.86	7.77
[18]	-3.07	-5.44	6.01	0.12	-0.44
[26]	-10.5	0.24	0.58	3.66	5.55
[28]	-3.92	-7.21	-4.76	2.21	7.69
